The values below come from ChEMBL document CHEMBL1146685, “The difluoromethylene group as a replacement for the labile oxygen in steroid sulfates: a new approach to steroid sulfatase inhibitors” (Bioorg Med Chem Lett, 2004).

Data set [1] addresses T1, Steryl-sulfatase (Homo sapiens, UniProt P08842).
T1 sequence (P08842 whole entry): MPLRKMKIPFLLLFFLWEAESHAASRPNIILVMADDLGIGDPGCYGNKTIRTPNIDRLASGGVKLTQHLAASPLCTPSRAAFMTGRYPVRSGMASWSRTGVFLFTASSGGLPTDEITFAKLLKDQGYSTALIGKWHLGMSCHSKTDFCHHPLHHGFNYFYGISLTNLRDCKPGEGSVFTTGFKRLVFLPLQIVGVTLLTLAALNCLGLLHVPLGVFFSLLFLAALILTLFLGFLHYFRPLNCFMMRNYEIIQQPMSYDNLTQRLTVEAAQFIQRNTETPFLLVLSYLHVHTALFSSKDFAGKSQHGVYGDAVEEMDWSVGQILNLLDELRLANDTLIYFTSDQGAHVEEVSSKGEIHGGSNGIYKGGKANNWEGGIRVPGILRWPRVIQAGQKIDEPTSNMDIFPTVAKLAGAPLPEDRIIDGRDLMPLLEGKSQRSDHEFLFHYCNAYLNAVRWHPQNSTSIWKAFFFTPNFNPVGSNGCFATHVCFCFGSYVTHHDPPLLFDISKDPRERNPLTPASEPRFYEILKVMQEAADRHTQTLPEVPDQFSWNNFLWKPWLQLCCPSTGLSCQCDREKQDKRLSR
Kind of data set: Competitive inhibitory activity against steroid sulfatase (STS).

For data set [2], the target named is T1, Steryl-sulfatase. In words: (§1) Inhibitory activity against steroid sulfatase (STS).
The target in data set [3] is T2, Steryl-sulfatase (Homo sapiens) (UniProt P08842).
T2 sequence (whole entry): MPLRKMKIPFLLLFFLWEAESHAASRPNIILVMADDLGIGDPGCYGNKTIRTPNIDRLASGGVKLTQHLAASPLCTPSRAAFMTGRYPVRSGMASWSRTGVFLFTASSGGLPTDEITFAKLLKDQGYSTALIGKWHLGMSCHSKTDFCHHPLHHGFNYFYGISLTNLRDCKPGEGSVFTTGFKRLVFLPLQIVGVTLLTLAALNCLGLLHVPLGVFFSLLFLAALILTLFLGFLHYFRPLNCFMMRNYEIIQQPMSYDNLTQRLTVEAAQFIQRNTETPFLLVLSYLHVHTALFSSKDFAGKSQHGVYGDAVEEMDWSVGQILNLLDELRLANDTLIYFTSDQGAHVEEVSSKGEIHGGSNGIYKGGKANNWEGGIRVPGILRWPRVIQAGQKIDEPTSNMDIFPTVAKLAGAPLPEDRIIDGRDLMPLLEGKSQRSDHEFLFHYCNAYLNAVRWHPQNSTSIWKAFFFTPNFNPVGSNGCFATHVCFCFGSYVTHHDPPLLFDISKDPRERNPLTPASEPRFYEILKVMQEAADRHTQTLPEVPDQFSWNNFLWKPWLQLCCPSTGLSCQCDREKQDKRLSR

Data set [4] addresses T1, Steryl-sulfatase. In words: Inhibitory activity against steroid sulfatase (STS) using methodology of Li et al.
Data set [5] addresses T2, Steryl-sulfatase (Homo sapiens). Described as §1.
Substrate in data set [6]: C[C@]12CC[C@@H]3c4ccc(OS(=O)(=O)O)cc4CC[C@H]3[C@@H]1CCC2=O
In words: Michaelis-Menten constant steroid sulfatase (STS) was determined.

As to `C[C@]12CC[C@@H]3c4ccc(C(F)(F)S(=O)(=O)O)cc4CCC3[C@@H]1CCC2=O` (single isomer, unassigned), the affinity in data set [1] corresponds to a Ki of 57 µM. In other words, the double-digit micromolar range.
Still for that read-out and setting: the value for `C[C@]12CC[C@@H]3c4ccc(C(F)(F)C5N=NN=N5)cc4CC[C@H]3[C@@H]1CCC2=O` was 16 µM.
For the molecule `C[C@]12CC[C@@H]3c4ccc(C(F)(F)S(=O)(=O)O)cc4CC[C@H]3[C@@H]1CC/C2=C\O`, the Ki (commonly the dissociation constant of the complex between target and ligand, obtained from inhibition or displacement) in data set [2] was found to be 37 µM.
Turning to `C[C@]12CC[C@@H]3c4ccc(CS(=O)(=O)O)cc4CCC3[C@@H]1CCC2=O` (single isomer, unassigned), the inhibition constant (Ki) in data set [2] amounted to 140 µM; in data set [4] it was 600 µM. In data set [3], this molecule yielded an Alpha Ki of 1380 µM.
As to `C[C@]12CC[C@@H]3c4ccc(CS(=O)(=O)O)cc4CC[C@H]3[C@@H]1CC/C2=C\O`, the inhibition constant Ki in data set [2] came to 140 µM.
Take `C[C@]12CC[C@@H]3c4ccc(Cc5nnn[nH]5)cc4CCC3[C@@H]1CCC2=O` (single isomer, unassigned): the Ki in data set [2] came out at 72.7 µM. This molecule also gave an Alpha Ki in data set [5] of 213 µM.

B1: Steryl-sulfatase (Homo sapiens), P08842 (protein)
chain: MPLRKMKIPFLLLFFLWEAESHAASRPNIILVMADDLGIGDPGCYGNKTIRTPNIDRLASGGVKLTQHLAASPLCTPSRAAFMTGRYPVRSGMASWSRTGVFLFTASSGGLPTDEITFAKLLKDQGYSTALIGKWHLGMSCHSKTDFCHHPLHHGFNYFYGISLTNLRDCKPGEGSVFTTGFKRLVFLPLQIVGVTLLTLAALNCLGLLHVPLGVFFSLLFLAALILTLFLGFLHYFRPLNCFMMRNYEIIQQPMSYDNLTQRLTVEAAQFIQRNTETPFLLVLSYLHVHTALFSSKDFAGKSQHGVYGDAVEEMDWSVGQILNLLDELRLANDTLIYFTSDQGAHVEEVSSKGEIHGGSNGIYKGGKANNWEGGIRVPGILRWPRVIQAGQKIDEPTSNMDIFPTVAKLAGAPLPEDRIIDGRDLMPLLEGKSQRSDHEFLFHYCNAYLNAVRWHPQNSTSIWKAFFFTPNFNPVGSNGCFATHVCFCFGSYVTHHDPPLLFDISKDPRERNPLTPASEPRFYEILKVMQEAADRHTQTLPEVPDQFSWNNFLWKPWLQLCCPSTGLSCQCDREKQDKRLSR
Consider B1, for which, in data set [6], the Michaelis constant (Km) (commonly the concentration of substrate that gives half-maximal velocity) came to 21 µM.
